According to publication PMC11912475 (Journal of Medicinal Chemistry, 2025):

Legend:
Serotonin 5-HT1A = target: T1, Serotonin 5-HT1A (Homo sapiens, UniProt P08908); assay: Radioligand displacement binding assay, [3H]8-OH-DPAT, 5-HT1A
T1 construct: host or cells: CHO-K1
T1 sequence (P08908 1-422): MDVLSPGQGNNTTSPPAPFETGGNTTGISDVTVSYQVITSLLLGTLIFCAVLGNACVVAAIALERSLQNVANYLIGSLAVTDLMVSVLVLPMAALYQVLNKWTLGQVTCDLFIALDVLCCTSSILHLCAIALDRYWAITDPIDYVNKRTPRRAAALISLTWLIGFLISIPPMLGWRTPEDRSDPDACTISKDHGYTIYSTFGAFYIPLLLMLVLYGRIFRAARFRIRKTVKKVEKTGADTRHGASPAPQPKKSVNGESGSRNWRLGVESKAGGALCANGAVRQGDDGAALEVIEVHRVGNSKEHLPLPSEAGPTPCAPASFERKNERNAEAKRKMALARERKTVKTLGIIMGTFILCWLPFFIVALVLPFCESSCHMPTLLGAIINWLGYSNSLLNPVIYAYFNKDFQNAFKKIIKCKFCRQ

Serotonin 5-HT2A = target: T2, Serotonin 5-HT2A (Homo sapiens, UniProt P28223); assay: Radioligand displacement binding assay, [3H]ketanserin, 5-HT2A
T2 construct: host or cells: CHO-K1
T2 sequence (P28223 whole entry): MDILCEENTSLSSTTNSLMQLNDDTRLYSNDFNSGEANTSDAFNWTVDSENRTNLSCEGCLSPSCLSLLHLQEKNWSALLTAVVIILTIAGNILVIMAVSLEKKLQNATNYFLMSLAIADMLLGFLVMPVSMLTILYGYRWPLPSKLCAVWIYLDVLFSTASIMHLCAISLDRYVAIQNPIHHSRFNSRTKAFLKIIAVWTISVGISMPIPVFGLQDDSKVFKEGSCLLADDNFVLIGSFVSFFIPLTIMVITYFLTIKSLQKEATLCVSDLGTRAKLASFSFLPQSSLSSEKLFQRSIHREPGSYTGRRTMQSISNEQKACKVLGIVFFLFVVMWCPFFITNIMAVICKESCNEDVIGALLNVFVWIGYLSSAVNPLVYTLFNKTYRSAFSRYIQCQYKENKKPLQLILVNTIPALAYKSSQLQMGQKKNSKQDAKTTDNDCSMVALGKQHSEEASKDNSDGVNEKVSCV

Muscarinic M5 = target: T3, Muscarinic M5 (Homo sapiens, UniProt P08912); assay: Radioligand displacement binding assay, [3H]N-methylscopolamine, M5
T3 construct: host or cells: CHO-K1
T3 sequence (P08912 1-532): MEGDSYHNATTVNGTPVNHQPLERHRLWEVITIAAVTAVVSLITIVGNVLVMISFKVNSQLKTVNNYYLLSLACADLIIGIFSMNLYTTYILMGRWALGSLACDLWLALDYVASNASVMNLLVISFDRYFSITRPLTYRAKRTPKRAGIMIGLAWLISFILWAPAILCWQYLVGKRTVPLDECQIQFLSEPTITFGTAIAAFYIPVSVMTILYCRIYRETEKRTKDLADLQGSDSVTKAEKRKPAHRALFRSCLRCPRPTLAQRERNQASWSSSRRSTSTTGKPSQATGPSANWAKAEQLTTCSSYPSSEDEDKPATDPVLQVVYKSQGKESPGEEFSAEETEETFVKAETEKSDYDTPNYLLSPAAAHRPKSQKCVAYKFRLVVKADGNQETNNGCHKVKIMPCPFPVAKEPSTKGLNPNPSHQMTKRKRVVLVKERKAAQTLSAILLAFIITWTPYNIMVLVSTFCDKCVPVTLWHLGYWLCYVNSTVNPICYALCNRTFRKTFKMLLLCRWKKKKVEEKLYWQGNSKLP

[1] = target: T4, Serotonin transporter SERT (Homo sapiens, UniProt P31645); assay: Radioligand displacement binding assay, [3H]paroxetine, SERT; conditions: for % inhibition of binding, SERT / inhibition at 10 µM: 10 μM
T4 construct: host or cells: HEK-293

[2] = target: GluN1-GluN2D NMDAR subtype (Homo sapiens, UniProt O15399+Q05586); assay: FLIPR/Ca2+ assay, NMDAR GluN1-GluN2D subtype in CHO cells; type: cell-based; conditions: CHO cells, 10 μM L-glutamate and 10 μM glycine; n.d. = 50% of inhibition could not be reached at the highest concentration used
Chain of GluN1-GluN2D NMDAR subtype (O15399 28-1336, other chains not shown): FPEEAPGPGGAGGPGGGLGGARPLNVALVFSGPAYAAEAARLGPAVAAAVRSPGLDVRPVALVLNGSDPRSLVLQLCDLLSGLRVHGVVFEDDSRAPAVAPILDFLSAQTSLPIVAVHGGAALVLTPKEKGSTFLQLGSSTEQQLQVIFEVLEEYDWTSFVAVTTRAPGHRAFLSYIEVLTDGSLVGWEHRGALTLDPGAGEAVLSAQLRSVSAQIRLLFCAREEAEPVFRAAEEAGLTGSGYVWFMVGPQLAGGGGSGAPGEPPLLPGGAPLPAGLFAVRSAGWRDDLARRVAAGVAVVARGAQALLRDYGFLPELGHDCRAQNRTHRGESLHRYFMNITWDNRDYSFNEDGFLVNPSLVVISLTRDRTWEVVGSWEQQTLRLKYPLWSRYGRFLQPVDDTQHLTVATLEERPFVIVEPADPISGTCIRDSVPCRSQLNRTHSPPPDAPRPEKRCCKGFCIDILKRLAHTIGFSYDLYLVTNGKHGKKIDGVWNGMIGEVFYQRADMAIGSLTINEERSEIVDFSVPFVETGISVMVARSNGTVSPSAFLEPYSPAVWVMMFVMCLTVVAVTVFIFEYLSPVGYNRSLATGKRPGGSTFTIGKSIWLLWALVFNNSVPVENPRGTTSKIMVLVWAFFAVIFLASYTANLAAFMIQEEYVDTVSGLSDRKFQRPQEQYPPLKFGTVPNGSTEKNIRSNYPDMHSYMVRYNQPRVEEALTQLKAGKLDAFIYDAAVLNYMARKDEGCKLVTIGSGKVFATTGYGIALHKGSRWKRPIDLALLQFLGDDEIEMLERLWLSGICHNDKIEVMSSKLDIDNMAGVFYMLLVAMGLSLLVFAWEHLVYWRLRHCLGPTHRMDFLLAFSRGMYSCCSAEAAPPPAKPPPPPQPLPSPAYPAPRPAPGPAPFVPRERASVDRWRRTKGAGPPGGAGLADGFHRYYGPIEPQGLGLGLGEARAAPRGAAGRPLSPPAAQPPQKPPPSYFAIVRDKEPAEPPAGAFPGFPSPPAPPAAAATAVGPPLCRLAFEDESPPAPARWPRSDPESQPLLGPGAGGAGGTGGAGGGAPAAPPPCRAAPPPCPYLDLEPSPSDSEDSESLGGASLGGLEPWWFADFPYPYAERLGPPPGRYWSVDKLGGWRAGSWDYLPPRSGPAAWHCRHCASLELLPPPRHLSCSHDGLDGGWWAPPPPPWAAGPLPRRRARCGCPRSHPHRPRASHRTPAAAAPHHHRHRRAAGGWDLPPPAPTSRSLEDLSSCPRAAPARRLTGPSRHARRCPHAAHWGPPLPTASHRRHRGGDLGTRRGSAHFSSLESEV
Experimental: (§1) These compounds were assessed for their effects on specific heterodimeric NMDAR subtypes stably overexpressed in Chinese Hamster Ovary (CHO) cells. The subtypes tested included GluN1-GluN2A, GluN1-GluN2B, GluN1-GluN2C, and GluN1-GluN2D. CHO cells expressing each of the four NMDAR subtypes were incubated with 10 μM L-glutamate, a concentration known to elicit maximal Ca^2+ influx, serving as the stimulus. Intracellular Ca^2+ levels were subsequently measured to determine the extent of NMDAR activation.
(§2) Assay buffer composition was 145 mM NaCl, 5 mM KCl, 2 mM CaCl2, 1 g/Liter D-(+)-glucose, and 20 mM HEPES (pH 7.3 adjusted with NaOH). Cells were plated at a density of 15.000/well in 384 black/clear bottom plates. […] Cells were kept at 30 °C in 5% CO2 incubator for 24 h. Cells were preloaded for 1 h with 2 μM Fluo-4 Ca^2+-sensitive probe, simultaneously with 2.5 mM probenecid, an inhibitor of nonspecific anion transport, and 500 μM ketamine to avoid cytotoxicity. […] Intracellular Ca^2+ level was monitored by FLIPR (excitation wavelength at 470–495 nm, emission wavelength at 515–575 nm) for 10 s before and 5 min after the addition of test items. All test items, including L-glutamate and glycine, were added simultaneously. […] FLIPR data were normalized as 100%, in the presence of 10 μM L-glutamate and 10 μM glycine, while as 0%, in the presence of assay buffer. […] Then, data were normalized by Excel 2013 (Microsoft Office) software, using wells added with 10 μM L-glutamate plus 10 μM glycine (column 23) as high control, and wells added with assay buffer only (column 24) as low control. To assess plate quality, Z′ calculations were performed in Excel. Z′ was calculated according to following equation: Z′ = 1–3(σh + σl)/|μh – μL| where μ and σ are the means and the standard deviations of the means of high (h) and low (l) controls, respectively. Compound concentration–response curves were plotted by Prism 8 GraphPad software, in the different experimental conditions (see Supporting Information). Data were analyzed using least-squares regression fitting, to fit data to a standard four parameters logistic equation using GraphPad Prism10. This regression fitting allowed the calculation of pIC50 and the corresponding SEM.

Histamine H1 = target: T5, Histamine H1 (Homo sapiens, UniProt P35367); assay: Radioligand displacement binding assay, [3H]pyrilamine, H1
T5 construct: host or cells: CHO-K1
T5 sequence (P35367 whole entry): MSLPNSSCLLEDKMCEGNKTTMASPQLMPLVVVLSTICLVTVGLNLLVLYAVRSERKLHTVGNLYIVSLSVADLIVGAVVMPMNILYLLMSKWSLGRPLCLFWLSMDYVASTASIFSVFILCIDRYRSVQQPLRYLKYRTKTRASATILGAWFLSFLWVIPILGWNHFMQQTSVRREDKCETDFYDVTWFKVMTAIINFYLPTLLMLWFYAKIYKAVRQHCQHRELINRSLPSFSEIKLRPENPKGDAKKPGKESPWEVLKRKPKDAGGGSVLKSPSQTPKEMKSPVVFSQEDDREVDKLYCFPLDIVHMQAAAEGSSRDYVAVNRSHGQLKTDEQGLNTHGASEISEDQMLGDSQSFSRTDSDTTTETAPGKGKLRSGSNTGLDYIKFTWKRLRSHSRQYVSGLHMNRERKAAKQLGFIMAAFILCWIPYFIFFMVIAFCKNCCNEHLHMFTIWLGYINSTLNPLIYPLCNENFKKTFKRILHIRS

Serotonin 5-HT7 = target: T6, Serotonin 5-HT7 (Homo sapiens, UniProt P34969); assay: Radioligand displacement binding assay, [3H]LSD, 5-HT7
T6 construct: host or cells: CHO-K1

μ opioid receptor (MOP) = target: T7, μ opioid receptor (MOP) (Homo sapiens, UniProt P35372); assay: biochemical; type: binding; conditions: for inhibition at 0.3 µM / inhibition at 3 µM: read-out: % inhibition of binding, MOP
T7 construct: host or cells: CHO-K1
T7 sequence (P35372 whole entry): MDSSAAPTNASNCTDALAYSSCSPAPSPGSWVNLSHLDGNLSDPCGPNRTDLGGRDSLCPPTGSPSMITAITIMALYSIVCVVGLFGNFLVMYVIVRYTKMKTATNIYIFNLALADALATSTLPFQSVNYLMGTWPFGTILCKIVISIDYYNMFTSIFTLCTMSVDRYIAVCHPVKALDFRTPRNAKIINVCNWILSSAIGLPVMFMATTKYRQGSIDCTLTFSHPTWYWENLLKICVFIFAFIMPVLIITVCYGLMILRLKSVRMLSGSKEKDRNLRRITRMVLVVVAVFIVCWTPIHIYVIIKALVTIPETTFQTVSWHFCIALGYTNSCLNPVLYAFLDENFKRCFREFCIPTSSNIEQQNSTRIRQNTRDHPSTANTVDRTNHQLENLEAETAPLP

Serotonin 5-HT2C = target: T8, Serotonin 5-HT2C (Homo sapiens, UniProt P28335); assay: Radioligand displacement binding assay, [3H]mesulergine, 5-HT2C
T8 construct: host or cells: CHO-K1
T8 sequence (P28335 33-458): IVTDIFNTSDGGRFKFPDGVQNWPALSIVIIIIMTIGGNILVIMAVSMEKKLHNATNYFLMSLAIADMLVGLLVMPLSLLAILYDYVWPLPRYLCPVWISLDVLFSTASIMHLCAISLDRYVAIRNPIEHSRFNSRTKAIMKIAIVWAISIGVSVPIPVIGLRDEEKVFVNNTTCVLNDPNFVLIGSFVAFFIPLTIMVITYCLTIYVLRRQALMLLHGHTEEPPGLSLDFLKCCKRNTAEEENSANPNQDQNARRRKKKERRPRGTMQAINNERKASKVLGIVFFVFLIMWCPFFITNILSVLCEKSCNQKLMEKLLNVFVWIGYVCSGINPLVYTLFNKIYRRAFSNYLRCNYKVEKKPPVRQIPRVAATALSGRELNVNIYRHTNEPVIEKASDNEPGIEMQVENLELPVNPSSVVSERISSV

[3] = target: GluN1-GluN2C NMDAR subtype (Homo sapiens, UniProt Q05586+Q14957); assay: FLIPR/Ca2+ assay, NMDAR GluN1-GluN2C subtype in CHO cells; type: cell-based; conditions: CHO cells, 10 μM L-glutamate and 10 μM glycine; n.d. = 50% of inhibition could not be reached at the highest concentration used
Chain of GluN1-GluN2C NMDAR subtype (Q14957 20-1233, other chains not shown): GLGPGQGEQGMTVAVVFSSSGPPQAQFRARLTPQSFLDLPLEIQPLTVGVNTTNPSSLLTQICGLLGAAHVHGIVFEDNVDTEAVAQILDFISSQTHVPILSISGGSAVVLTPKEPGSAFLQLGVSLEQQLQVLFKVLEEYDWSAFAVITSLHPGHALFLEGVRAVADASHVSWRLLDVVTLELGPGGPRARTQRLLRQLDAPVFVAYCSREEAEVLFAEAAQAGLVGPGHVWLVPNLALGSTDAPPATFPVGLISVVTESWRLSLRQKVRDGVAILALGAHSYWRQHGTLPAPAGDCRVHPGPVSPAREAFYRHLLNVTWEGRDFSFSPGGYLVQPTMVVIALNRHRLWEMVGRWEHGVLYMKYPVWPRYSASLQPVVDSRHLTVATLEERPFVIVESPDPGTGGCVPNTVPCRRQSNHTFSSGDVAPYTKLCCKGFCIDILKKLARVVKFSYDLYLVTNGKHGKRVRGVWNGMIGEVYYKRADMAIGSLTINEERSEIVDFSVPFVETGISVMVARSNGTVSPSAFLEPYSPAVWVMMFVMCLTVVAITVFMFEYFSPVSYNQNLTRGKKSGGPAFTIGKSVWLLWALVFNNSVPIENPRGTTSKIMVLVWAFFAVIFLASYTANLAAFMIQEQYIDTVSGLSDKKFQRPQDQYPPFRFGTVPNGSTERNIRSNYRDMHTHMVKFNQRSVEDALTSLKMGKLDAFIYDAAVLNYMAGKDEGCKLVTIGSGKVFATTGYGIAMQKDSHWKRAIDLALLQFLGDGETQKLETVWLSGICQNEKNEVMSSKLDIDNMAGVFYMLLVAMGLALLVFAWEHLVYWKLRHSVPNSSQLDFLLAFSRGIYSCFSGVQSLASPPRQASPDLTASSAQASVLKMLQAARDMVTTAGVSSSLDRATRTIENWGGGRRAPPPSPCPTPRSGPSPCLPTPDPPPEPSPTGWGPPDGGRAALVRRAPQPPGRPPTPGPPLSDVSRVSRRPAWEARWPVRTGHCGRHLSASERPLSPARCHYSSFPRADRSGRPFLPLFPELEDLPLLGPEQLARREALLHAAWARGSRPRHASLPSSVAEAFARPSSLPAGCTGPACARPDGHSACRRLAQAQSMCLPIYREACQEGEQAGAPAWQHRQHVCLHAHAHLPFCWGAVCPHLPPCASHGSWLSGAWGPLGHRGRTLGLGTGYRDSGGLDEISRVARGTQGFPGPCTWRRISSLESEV
Experimental: as §1, §2

[4] = system: Glutamate, NMDA, Phencyclidine binding site; assay: Radioligand displacement binding assay, [3H]TCP, NMDA; design: species or system Wistar rat
[5] = target: GluN1-GluN2A NMDAR subtype (Homo sapiens, UniProt Q05586+Q12879); assay: FLIPR/Ca2+ assay, NMDAR GluN1-GluN2A subtype in CHO cells; type: cell-based; conditions: CHO cells, 10 μM L-glutamate and 10 μM glycine; n.d. = 50% of inhibition could not be reached at the highest concentration used
Experimental: as §1, §2

[6] = target: T9, Norepinephrine transporter NET (Homo sapiens, UniProt P23975); assay: Radioligand displacement binding assay, [125I]RTI-55, NET
T9 construct: host or cells: MDCK
T9 sequence (P23975 whole entry): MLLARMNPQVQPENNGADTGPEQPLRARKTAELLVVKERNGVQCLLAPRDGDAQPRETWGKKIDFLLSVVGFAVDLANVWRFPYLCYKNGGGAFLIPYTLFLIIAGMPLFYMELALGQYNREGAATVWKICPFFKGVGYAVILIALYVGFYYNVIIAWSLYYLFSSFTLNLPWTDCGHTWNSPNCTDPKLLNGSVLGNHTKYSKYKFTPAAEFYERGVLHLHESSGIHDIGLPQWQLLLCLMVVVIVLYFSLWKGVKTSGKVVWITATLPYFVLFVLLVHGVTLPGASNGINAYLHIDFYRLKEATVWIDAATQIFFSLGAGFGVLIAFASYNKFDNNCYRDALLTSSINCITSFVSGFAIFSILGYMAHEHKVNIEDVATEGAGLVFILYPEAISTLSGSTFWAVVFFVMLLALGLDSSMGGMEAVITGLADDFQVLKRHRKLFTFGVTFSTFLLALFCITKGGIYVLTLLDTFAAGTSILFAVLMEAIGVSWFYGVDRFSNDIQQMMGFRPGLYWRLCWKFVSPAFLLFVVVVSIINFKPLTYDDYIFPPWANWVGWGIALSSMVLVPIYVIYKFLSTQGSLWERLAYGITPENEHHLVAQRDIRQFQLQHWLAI

Sigma σ1 = target: T10, Sigma σ1 (Homo sapiens, UniProt Q99720); assay: Radioligand displacement binding assay, [3H]pentazocine, sigma σ1
T10 construct: Sigma σ1; Source: Human Jurkat cells; host or cells: Jurkat
T10 sequence (Q99720 whole entry): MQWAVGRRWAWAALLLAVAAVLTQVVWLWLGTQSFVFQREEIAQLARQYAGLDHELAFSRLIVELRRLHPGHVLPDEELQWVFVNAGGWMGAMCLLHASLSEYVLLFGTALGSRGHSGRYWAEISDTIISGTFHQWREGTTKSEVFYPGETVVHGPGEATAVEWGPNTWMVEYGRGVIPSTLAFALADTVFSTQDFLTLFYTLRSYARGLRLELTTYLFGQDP

Serotonin 5-HT5A = target: T11, Serotonin 5-HT5A (Homo sapiens, UniProt P47898); assay: Radioligand displacement binding assay, [3H]LSD, 5-HT5A
T11 construct: host or cells: CHO-K1

[7] = target: T12, GluN1-GluN2B NMDAR subtype (Homo sapiens, UniProt Q05586+Q13224); assay: FLIPR/Ca2+ assay, NMDAR GluN1-GluN2B subtype in CHO cells; type: cell-based; conditions: CHO cells, 10 μM L-glutamate and 10 μM glycine; n.d. = 50% of inhibition could not be reached at the highest concentration used
T12 construct: host or cells: NR1-2B-CHO cells, constitutive expression
Experimental: as §1, §2

Compound	inhibition at 0.3 µM (Serotonin 5-HT1A)	inhibition at 3 µM (Serotonin 5-HT1A)	inhibition at 0.3 µM (Serotonin 5-HT2A)	inhibition at 3 µM (Serotonin 5-HT2A)	inhibition at 1 µM (Muscarinic M5)	inhibition at 10 µM (Muscarinic M5)	inhibition at 1 µM [1]	inhibition at 10 µM [1]	pIC50 (mean ± SEM) GluN1-GluN2D [2]	inhibition at 10 µM (Histamine H1)	inhibition at 30 µM (Histamine H1)	inhibition at 1 µM (Serotonin 5-HT7)	inhibition at 10 µM (Serotonin 5-HT7)	inhibition at 0.3 µM (μ opioid receptor (MOP))	inhibition at 3 µM (μ opioid receptor (MOP))	inhibition at 0.3 µM (Serotonin 5-HT2C)	inhibition at 3 µM (Serotonin 5-HT2C)	pIC50 (mean ± SEM) GluN1-GluN2C [3]	% inhibition of binding, NMDA ([4]; 1 μM)	pIC50 (mean ± SEM) GluN1-GluN2A [5]	further results
CC[C@@H](O)C(C[C@@H](C)NC)(c1ccccc1)c1ccccc1 [(3R,6R)-NML, (3R,6R)-6-(methylamino)-4,4-diphenylheptan-3-ol]	-9%	-10%	0%	-3%	15%	43%	18%	69%	5.0 ± 0.052	15%	20%	4%	5%	4%	11%	18%	16%	5.0 ± 0.048	17%	5.0 ± 0.081	% inhibition of binding, SERT [1]: displaced; pKi (mean ± SEM) [3H]diprenorphine, MOP (μ opioid receptor (MOP)): 5.64 ± 0.09; % inhibition of binding, NMDA ([4]; 10 μM): 57%; pKi (mean ± SEM) [3H]TCP, NMDA ([4]; Wistar rat cerebral cortex, 4.0 nM [3H]TCP): 5.56 ± 0.07; inhibition at 1 µM [6]: -2%; inhibition at 10 µM [6]: 14%; inhibition at 0.3 µM (Sigma σ1): 4%; inhibition at 3 µM (Sigma σ1): 33%; inhibition at 1 µM (Serotonin 5-HT5A): 13%; inhibition at 10 µM (Serotonin 5-HT5A): 63%; pIC50 (mean ± SEM) GluN1-GluN2B [7]: 4.8 ± 0.055
CC[C@@H](O)C(C[C@H](C)N)(c1ccccc1)c1ccccc1 [(3R,6S)-DNML, (3R,6S)-6-amino-4,4-diphenylheptan-3-ol]	1%	-1%	6%	9%	9%	13%	29%	65%	4.9 ± 0.093	4%	19%	14%	12%	-3%	26%	3%	-1%	5.1 ± 0.062	12%	4.6 ± 0.077	% inhibition of binding, SERT [1]: displaced; inhibition at 1 µM [6]: 0%; inhibition at 10 µM [6]: 5%; inhibition at 0.3 µM (Sigma σ1): 17%; inhibition at 3 µM (Sigma σ1): 61%; inhibition at 1 µM (Serotonin 5-HT5A): -1%; inhibition at 10 µM (Serotonin 5-HT5A): 16%; pIC50 (mean ± SEM) GluN1-GluN2B [7]: 4.6 ± 0.062
CC[C@@H](O)C(C[C@H](C)NC)(c1ccccc1)c1ccccc1 [(3R,6S)-NML, (3R,6S)-6-(methylamino)-4,4-diphenylheptan-3-ol]	5%	11%	0%	4%	11%	46%	12%	45%	4.7 ± 0.057	6%	43%	14%	28%	1%	29%	-4%	5%	4.6 ± 0.046	8%	4.4 ± 0.037	% inhibition of binding, NMDA ([4]; 10 μM): 48%; inhibition at 1 µM [6]: 10%; inhibition at 10 µM [6]: 14%; inhibition at 0.3 µM (Sigma σ1): 47%; inhibition at 3 µM (Sigma σ1): 80%; inhibition at 1 µM (Serotonin 5-HT5A): -1%; inhibition at 10 µM (Serotonin 5-HT5A): 15%; pIC50 (mean ± SEM) GluN1-GluN2B [7]: 4.5 ± 0.053
